Values of other authors as cited in publication PMC11785675, “Phase Ib study of the oral PI3Kδ inhibitor linperlisib in patients with advanced solid tumors” (International Journal of Clinical Oncology, 2024).

Key:
[1] = test system: thymic epithelial tumors cells carrying mutant PI3K subunits; design: method as in PMID 27117832; conditions: in vitro; cited from earlier work
[2] = test system: breast cancer; design: method as in PMID 24919154, PMID 33093155; conditions: cited from earlier work
[3] = test system: HCC cells; design: method as in PMID 24919154, PMID 33093155; conditions: cited from earlier work
[4] = test system: advanced or refractory solid tumors; design: method as in PMID 27915408; conditions: 10 Japanese patients, cited from earlier work
[5] = test system: patients; design: method as in PMID 31619463; conditions: cited from earlier work
[6] = test system: patients; design: method as in PMID 27672108; conditions: cited from earlier work
[7] = test system: advanced solid tumors; design: method as in PMID 27672108; conditions: 48 patients with advanced solid tumors, cited from earlier work
[8] = comparison drugs; no reference given; cited from earlier work
[9] = test system: patients; conditions: 150 mg twice daily; 12 patients; cited from earlier work
[10] = test system: advanced solid tumors; design: method as in PMID 35288468; conditions: parsaclisib monotherapy; five patients; cited from earlier work

For `CS(=O)(=O)N1CCN(Cc2cc3nc(-c4cccc5[nH]ncc45)nc(N4CCOCC4)c3s2)CC1` [GDC-0941], the Antitumor activity [1] is given as “in vitro antitumor activity”.

For `Fc1ccc2[nH]ccc2c1-c1nc(N2CCOCC2)c2sc(CN3CCN(CC4CC4)CC3)cc2n1` [PI-3065], the “Growth and metastasis of breast cancer” value [2] is listed as “significantly inhibit growth and metastasis of breast cancer” and the “Apoptosis of HCC cells” value [3] is listed as “directly induce apoptosis of HCC cells”.

For `COc1c(OCCCN2CCOCC2)ccc2c1N=C(NC(=O)c1cnc(N)nc1)N1CCN=C21` [copanlisib], the “3-month PFS rate” value ([4]; 95% CI 1–40) is given as 12%, the “Median PFS” value ([4]; 95% CI 21–82) is given as 52 days and the “CR or PR” value [4] is given as “no patients achieved a CR or PR”. The DCR [4] was 40.0%, the “TEAE fatigue, all grade” value [5] was 46.0% and the “TEAE hyperglycemia, grade 3” value [5] was 22.2%. The “TEAE hyperglycemia, grade 4” value [5] was 1.6%, the “TEAE hypertension, all grade” value [5] was 41.3% and the “TEAE hypertension, grade 3” value [5] was 30.2%. For the same compound, the “TEAE hypertension, grade 4” value [5] was 0, the “TEAE hypophosphatemia, grade 3” value [5] was 11.1% and the “TEAE hypophosphatemia, grade 4” value [5] was 0. For the same compound, the “TEAE lymphocyte count decreased, grade 3” value [5] was 7.9%, the “TEAE lymphocyte count decreased, grade 4” value [5] was 4.8% and the “Patients with AEs possibly related to copanlisib” value ([6]; 49 patients) was 86%. For the same compound, the “Drug-related grade 3 AE hyperglycemia” value [6] was 30%, the “Drug-related grade 3 AE hypertension” value [6] was 14% and the “Drug-related grade 3 AE rash” value [6] was 7%. The “TRAE hyperglycemia, all grades” value [6] was 63%, the “TRAE hypertension, all grades” value [6] was 21% and the “TRAE nausea, all grades” value [6] was 37%. For the same compound, the “Patients achieving stable disease” value [7] was 15 patients, the “Patients achieving CR” value ([7]; endometrial carcinoma with PIK3CA and PTEN mutations) was “one” and the “Patients with PR” value ([7]; metastatic breast cancer) was “two”.

For `C[C@H](Nc1ncnc2[nH]cnc12)c1cc2cccc(Cl)c2c(=O)n1-c1ccccc1` [duvelisib, reference compound], the Route of excretion [8] is listed as “predominantly excreted via the intestines”.

In the case of `CC[C@H](Nc1ncnc2[nH]cnc12)c1nc2cccc(F)c2c(=O)n1-c1ccccc1` [idelalisib], the “Grade ≥ 3 TEAE increased ALT” value [9] is given as 25%, the “Grade ≥ 3 TEAE increased AST” value [9] is given as 41.7% and the “Grade ≥ 3 TEAE maculopapular rash” value [9] is given as 25%. The “TEAE increased ALT” value [9] was 33.3%, the “TEAE increased AST” value [9] was 41.7% and the TEAE maculopapular rash [9] was 25%. For the same compound, the TEAE pyrexia [9] was 50%.

In the case of `CCOc1c([C@H](C)n2nc(C)c3c(N)ncnc32)cc(Cl)c(F)c1[C@@H]1CNC(=O)C1` [parsaclisib], the “CR or PR” value [10] is given as “none achieved a CR or PR”.
